Test results reported in US6358885B1, “Substituted phenylheterocyclic herbicides” (Mississippi State University, priority 1992, dated 2002).

What was measured:
wheat = assay: Test C preemergence/postemergence greenhouse plant response rating 0 to 100; type: in vivo, Triticum aestivum; settings: for Plant response rating, Wheat: 125 g/ha, 0 to 100 scale
In short: (§1)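 Compounds in non-phytotoxic solvent applied preemergence to sandy loam one day after planting, postemergence at the 1–4 leaf stage, or to ~2.5 cm floodwater over silt loam.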

ryegrass = assay: as above; type: in vivo, Lolium multiflorum; settings: for Plant response rating Ryegrass: 125 g/ha, 0 to 100 scale
In short: as §1

pigweed = assay: as above; type: in vivo, Amaranthusretroflexus; settings: for Plant response rating Pigweed: 125 g/ha, 0 to 100 scale
In short: as §1

cocklebur = assay: Test B preemergence/postemergence greenhouse plant response rating 0 to 10; type: in vivo, Xanthium pensylvanicum; settings: 0 to 10 scale
In short: (§2)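 Postemergence treatment of plants two to eighteen cm tall ran alongside preemergence treatment of planted seed, each using compound in a non-phytotoxic solvent.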

barnyardgrass = assay: Test C flood test plant response rating 0 to 100; type: in vivo, Echinochloa crus-galli
In short: as §1

wild oat = assay: Test B preemergence/postemergence greenhouse plant response rating 0 to 10; type: in vivo, Avena fatua; settings: 0 to 10 scale
In short: as §2

blackgrass [1] = assay: as above; type: in vivo, Alopecurus myosuroides; settings: 0 to 10 scale
In short: as §2

cotton = assay: Test C preemergence/postemergence greenhouse plant response rating 0 to 100; type: in vivo, Gossypium hirsutum; settings: for Plant response rating, Cotton: 125 g/ha, 0 to 100 scale
In short: as §1

bedstraw = assay: Test B preemergence/postemergence greenhouse plant response rating 0 to 10; type: in vivo, Galium aparine; settings: 0 to 10 scale
In short: as §2

blackgrass [2] = assay: Test C preemergence/postemergence greenhouse plant response rating 0 to 100; type: in vivo, Alopecurus myosuroides; settings: for Plant response rating, Blackgrass: 125 g/ha, 0 to 100 scale
In short: as §1

morningglory = assay: Test B preemergence/postemergence greenhouse plant response rating 0 to 10; type: in vivo, Ipomoea hederacea; settings: 0 to 10 scale
In short: as §2

sugar beet = assay: as above; type: in vivo, Beta vulgaris; settings: 0 to 10 scale
In short: as §2

`Fc1cc(Cl)ccc1-c1nn2c(c1Br)CCCC2` [Compound 52] was tested, and the “Plant response rating, Wheat” value (wheat; POSTEMERGENCE) was 50, the “Plant response rating (0 to 100), Wheat” value (wheat; POSTEMERGENCE, Rate 2 g/ha) was 10 and the “Plant response rating, Wheat” value (wheat; PREEMERGENCE) was 60. For the same compound, the “Plant response rating (0 to 100), Wheat” value (wheat; PREEMERGENCE, Rate 2 g/ha) was 0, the “Plant response rating (0 to 100), Wheat” value (wheat; Rate 8 g/ha, POSTEMERGENCE) was 20 and the “Plant response rating (0 to 100), Wheat” value (wheat; Rate 8 g/ha, PREEMERGENCE) was 0. For the same compound, the “Plant response rating (0 to 100), Wheat” value (wheat; Rate 31 g/ha, POSTEMERGENCE) was 30, the “Plant response rating (0 to 100), Wheat” value (wheat; Rate 31 g/ha, PREEMERGENCE) was 0 and the “Plant response rating Ryegrass” value (ryegrass; POSTEMERGENCE) was 60. For the same compound, the “Plant response rating (0 to 100), Ryegrass” value (ryegrass; POSTEMERGENCE, Rate 2 g/ha) was 10, the “Plant response rating Ryegrass” value (ryegrass; PREEMERGENCE) was 50 and the “Plant response rating (0 to 100), Ryegrass” value (ryegrass; PREEMERGENCE, Rate 2 g/ha) was 0. The “Plant response rating (0 to 100), Ryegrass” value (ryegrass; Rate 8 g/ha, POSTEMERGENCE) was 20, the “Plant response rating (0 to 100), Ryegrass” value (ryegrass; Rate 8 g/ha, PREEMERGENCE) was 0 and the “Plant response rating (0 to 100), Ryegrass” value (ryegrass; Rate 31 g/ha, POSTEMERGENCE) was 40. The “Plant response rating (0 to 100), Ryegrass” value (ryegrass; Rate 31 g/ha, PREEMERGENCE) was 10, the “Plant response rating Pigweed” value (pigweed; POSTEMERGENCE) was 100 and the “Plant response rating (0 to 100), Pigweed” value (pigweed; POSTEMERGENCE, Rate 2 g/ha) was 20. The “Plant response rating Pigweed” value (pigweed; PREEMERGENCE) was 100, the “Plant response rating (0 to 100), Pigweed” value (pigweed; PREEMERGENCE, Rate 2 g/ha) was 0 and the “Plant response rating (0 to 100), Pigweed” value (pigweed; Rate 8 g/ha, POSTEMERGENCE) was 50. For the same compound, the “Plant response rating (0 to 100), Pigweed” value (pigweed; Rate 8 g/ha, PREEMERGENCE) was 50, the “Plant response rating (0 to 100), Pigweed” value (pigweed; Rate 31 g/ha, POSTEMERGENCE) was 50 and the “Plant response rating (0 to 100), Pigweed” value (pigweed; Rate 31 g/ha, PREEMERGENCE) was 100. The “Plant response rating, Cocklebur” value (cocklebur; POSTEMERGENCE, Rate 50 g/ha) was 6, the “Plant response rating, Cocklebur” value (cocklebur; POSTEMERGENCE, Rate 200 g/ha) was 8 and the “Plant response rating, Cocklebur” value (cocklebur; PREEMERGENCE, Rate 50 g/ha) was 0. For the same compound, the “Plant response rating, Cocklebur” value (cocklebur; Rate 200 g/ha, PREEMERGENCE) was 0, the “Plant response rating (0 to 100), Barnyardgrass 2” value (barnyardgrass; POSTEMERGENCE section, flood test, Rate 2 g/ha) was 25 and the “Plant response rating (0 to 100), Barnyardgrass 2” value (barnyardgrass; Rate 8 g/ha, under POSTEMERGENCE head (flood test species)) was 95. The “Plant response rating (0 to 100), Barnyardgrass 2” value (barnyardgrass; Rate 31 g/ha, under POSTEMERGENCE head (flood test species)) was 100, the “Plant response rating Barnyardgrass 2” value (barnyardgrass; flood test species listed under POSTEMERGENCE, 125 g/ha, 0 to 100 scale) was 100 and the “Plant response rating, Wild oat” value (wild oat; POSTEMERGENCE, Rate 50 g/ha) was 5. For the same compound, the “Plant response rating, Wild oat” value (wild oat; PREEMERGENCE, Rate 50 g/ha) was 4, the “Plant response rating, Wild oat” value (wild oat; Rate 200 g/ha, POSTEMERGENCE) was 8 and the “Plant response rating, Blackgrass” value (blackgrass [1]; POSTEMERGENCE, Rate 50 g/ha) was 4. The “Plant response rating, Blackgrass” value (blackgrass [1]; POSTEMERGENCE, Rate 200 g/ha) was 5, the “Plant response rating, Blackgrass” value (blackgrass [1]; PREEMERGENCE, Rate 50 g/ha) was 4 and the “Plant response rating, Blackgrass” value (blackgrass [1]; Rate 200 g/ha, PREEMERGENCE) was 6. The “Plant response rating, Cotton” value (cotton; POSTEMERGENCE) was 100, the “Plant response rating (0 to 100), Cotton” value (cotton; POSTEMERGENCE, Rate 2 g/ha) was 70 and the “Plant response rating, Cotton” value (cotton; PREEMERGENCE) was 0. For the same compound, the “Plant response rating (0 to 100), Cotton” value (cotton; PREEMERGENCE, Rate 2 g/ha) was 0, the “Plant response rating (0 to 100), Cotton” value (cotton; Rate 8 g/ha, POSTEMERGENCE) was 95 and the “Plant response rating (0 to 100), Cotton” value (cotton; Rate 8 g/ha, PREEMERGENCE) was 0. For the same compound, the “Plant response rating (0 to 100), Cotton” value (cotton; Rate 31 g/ha, POSTEMERGENCE) was 95, the “Plant response rating (0 to 100), Cotton” value (cotton; Rate 31 g/ha, PREEMERGENCE) was 0 and the “Plant response rating, Bedstraw” value (bedstraw; POSTEMERGENCE, Rate 50 g/ha) was 10. The “Plant response rating, Bedstraw” value (bedstraw; POSTEMERGENCE, Rate 200 g/ha) was 10, the “Plant response rating, Bedstraw” value (bedstraw; PREEMERGENCE, Rate 50 g/ha) was 5 and the “Plant response rating, Bedstraw” value (bedstraw; Rate 200 g/ha, PREEMERGENCE) was 7. For the same compound, the “Plant response rating, Blackgrass” value (blackgrass [2]; POSTEMERGENCE) was 60, the “Plant response rating (0 to 100), Blackgrass” value (blackgrass [2]; POSTEMERGENCE, Rate 2 g/ha) was 10 and the “Plant response rating, Blackgrass” value (blackgrass [2]; PREEMERGENCE) was 50. The “Plant response rating (0 to 100), Blackgrass” value (blackgrass [2]; PREEMERGENCE, Rate 2 g/ha) was 0, the “Plant response rating (0 to 100), Blackgrass” value (blackgrass [2]; Rate 8 g/ha, POSTEMERGENCE) was 20 and the “Plant response rating (0 to 100), Blackgrass” value (blackgrass [2]; Rate 8 g/ha, PREEMERGENCE) was 0. The “Plant response rating (0 to 100), Blackgrass” value (blackgrass [2]; Rate 31 g/ha, POSTEMERGENCE) was 40, the “Plant response rating (0 to 100), Blackgrass” value (blackgrass [2]; Rate 31 g/ha, PREEMERGENCE) was 0 and the “Plant response rating, Morningglory” value (morningglory; POSTEMERGENCE, Rate 50 g/ha) was 9. The “Plant response rating, Morningglory” value (morningglory; PREEMERGENCE, Rate 50 g/ha) was 0, the “Plant response rating, Morningglory” value (morningglory; Rate 200 g/ha, POSTEMERGENCE) was 9 and the “Plant response rating, Morningglory” value (morningglory; Rate 200 g/ha, PREEMERGENCE) was 2. For the same compound, the “Plant response rating, Sugar beet” value (sugar beet; POSTEMERGENCE, Rate 50 g/ha) was 10, the “Plant response rating, Sugar beet” value (sugar beet; PREEMERGENCE, Rate 50 g/ha) was 9 and the “Plant response rating, Sugar beet” value (sugar beet; Rate 200 g/ha, PREEMERGENCE) was 10.
